Measurements taken from patent US8455495B2, “Pyridazino-pyridinone compounds and methods of use” (Amgen Inc., priority 2008, dated 2013).
Like-named read-outs stand apart in the source and are kept apart here.

Assays:
recombinant human p38α = recombinant human p38α (Homo sapiens, UniProt Q16539); experiment: Purified and activated recombinant human p38α HTRF assay; format: biochemical; conditions: 1 nM p38α, 50 μM ATP, GST-ATF2 substrate, read-out: p38a IC50
Procedure: Purified and Activated Recombinant Human p38α Assay Kinase Reaction Buffer: […] HTRF Detection Buffer: […] Serial Dilution of Compounds: […] Columns 6 and 12 (HI controls and LO controls respectively) in the drug plate were reserved as controls and contained only DMSO. Kinase Reaction: […] See table below for actual concentrations. In the absence of substrate, the background was measured as LO control. […] Assay Reagent Concentrations: […] HTRF Detection: […] After 60 minutes incubation at room temperature, the assay plate was read in a Discovery Plate Reader. The wells were excited with coherent 320 nm light and the ratio of delayed ([…] post excitation) emissions at […] (native europium fluorescence) and 665 nm (europium fluorescence transferred to allophycocyanin-an index of substrate phosphorylation) was determined (Park et al, 1999). Data Analysis: […] Data (consisting of POC and inhibitor concentration in μM) was fitted to a 4-parameter equation ([…]))), where A is the minimum y (POC) value, B is the maximum y (POC), C is the x (compound concentration) at the point of inflection and D is the slope factor, using a Levenburg-Marquardt non-linear regression algorithm. The inhibition constant (Ki) of the inhibitor was estimated from the IC50 (compound concentration at the point of inflection C) using the Cheng-Prussof equation: […] All results were expressed as the mean±the standard error of the mean. Data acquisition and non-linear regression algorithms were performed using Activity Base v5.2 and XL-fit software v4.1 respectively. All data was archived using Activity Base v5.2 software.

[1] = system: TNF-α induced IL-8 in 50% human whole blood; experiment: Inhibition of TNF-α induced IL-8 in 50% human whole blood; format: cell-based; conditions: TNF-α (1 nM) induced IL-8, 50% human whole blood, 16-18 h, read-out: WB TNF/IL8 IC50
Procedure: Inhibition of TNF-α Induced IL-8 in 50% Human Whole Blood
Test compounds were evaluated in vitro for the ability to inhibit the production of secreted IL-8 by whole blood activated with TNF-α. Fresh human whole blood was obtained from healthy, non-medicated volunteers in sodium heparin tubes.
Compound Dilution—Assay Procedure
Test compounds are serially diluted 1:3 in DMSO and then diluted 1:250 into R10 (RPMI 1640, 10% human serum AB, 1× pen/strep/glutamine) to the 4× working concentration to be used in the assay. 100 ul heparinized whole blood is plated into wells of 96 well flat bottom plates. 50 ul of either 4× compound or DMSO control (Final DMSO concentration is 0.1%) are added to the appropriate wells. Plates are incubated for 1 hour at 37 degrees Celsius. 50 ul of 4×TNF-α (4 nM TNF-α, for a final concentration of 1 nM) or control (media alone) is added to the appropriate wells (Total volume=200 ul). Plates are incubated overnight (16-18 hours). 100 ul of supernatant is collected and stored in 96-well round bottom polypropylene plates at −80 degrees Celsius or assayed immediately for IL-8.
Cytokines are measured on antibody (Ab) sandwich ECL based 96-well detection plates. 20 ul of supernatant are added to plate and plate is sealed and shaken at RT for 1 hour. 130 ul of detection Ab cocktail is added and plates are sealed and shaken for 1 hour in the dark at RT. Plates are read on MSD Sector HTS instrument. Data are analyzed and IC50 values generated using Activity Base and X1-fit programs.

[2] = system: TNF-α production by LPS-activated THP1 cells; experiment: Lipopolysaccharide-activated THP1 cell TNF production assay; format: cell-based; conditions: Homo sapiens, read-out: IC50 in THP-1 cellular TNF production assay
Procedure: Lipopolysaccharide-Activated THP1 Cell TNF Production Assay
THP1 cells were resuspended in fresh THP1 media (RPMI 1640, 10% heat-inactivated FBS, 1×PGS, 1×NEAA, plus 30 μM βME) at a concentration of 1.5×10^6 cells per mL. One hundred microliters of cells per well were plated in a polystyrene 96-well tissue culture plate. 1.5 micrograms per mL of bacterial LPS was prepared in THP1 media and transferred to the first 11 columns of a 96-well polypropylene plate. Column 12 contained only THP1 media for the LO control. Compounds were dissolved in 100% DMSO and serially diluted 3 fold in a polypropylene 96-well microtiter plate (drug plate). Columns 6 and 12 were reserved as controls (HI controls and LO controls respectively) and contained only DMSO. 10 μL of LPS followed by one microliter of inhibitor compound from the drug plate was transferred to the cell plate. The treated cells were induced to synthesize and secrete TNF-α in a 37° C. humidified incubator with 5% CO2 for 3 hours. Fifty microliters of conditioned media was transferred to a 96-well MULTI-ARRAY™ 96-well small spot plate—custom coated with MAB610 containing 100 μL of 2× Read Buffer P supplemented with 0.34 nM AF210NA polyclonal Ab labeled with ruthenium (MSD—Sulfo-TAG™—NHS ester). After an overnight incubation at room temperature with shaking, the reaction was read on the Sector Imager™ 6000. […] The amount of secreted TNF-α in the presence of test compounds compared with that in the presence of DMSO vehicle alone (HI control) was calculated using the formula: % control (POC)=(cpd−average LO)/(average HI−averageLO)*100. Data (consisting of POC and inhibitor concentration in μM) was fitted to a 4-parameter equation (y=A+((B−A)/(1+((x/C)^D))), where A is the minimum y (POC) value, B is the maximum y (POC), C is the x (cpd concentration) at the point of inflection and D is the slope factor) using a Levenburg-Marquardt non-linear regression algorithm.

[3] = system: production of IL-1β, IL-6, and TNF-α by PBMC activated with LPS; experiment: Lipopolysaccharide-activated PBMC cytokine production assay; format: cell-based; conditions: Homo sapiens, read-out: IC50 in PBMC cytokine production assay
Procedure: Lipopolysaccharide-Activated Pbmc Cytokine Production Assay
Test compounds were evaluated in vitro for the ability to inhibit the production of IL-1β, IL-6, and TNF-α by PBMC activated with bacterial lipopolysaccharide (LPS). Fresh leukocytes were obtained from a local blood bank, and peripheral blood mononuclear cells (PBMCs) were isolated by density gradient centrifugation on Ficol-Paque Plus (Pharmacia).
Preparation of Test Compound Stock Solutions
All reagents were prepared in RPMI 1640+10% v/v human AB serum+1× Pens/Strep/Glu (assay medium). Test compounds were dissolved in 100% DMSO and serially diluted in 96-well polypropylene round bottom micro titer plates (drug plate). Serial dilutions were then diluted 1:250 into assay medium to a 4× working concentration. Compound serial dilutions were half-log, 10 point titrations with a final starting concentration of 1 μM.
Treatment of Cells with Test Compounds and Activation with Lipopolysaccharide
LPS was prepared to a 4× concentration in assay medium. 100 μl of PBMC (1×10^6 cells/ml) were plated in a 96-well polystyrene flat bottom micro titer tissue culture plate and incubated with 50 μl of 4× compound serial dilution for 1 hour at 37° C., 5% CO2 in a tissue culture incubator. 50 μl 4×LPS or control was added and the plates were incubated at 37° C., 5% CO2 in a tissue culture incubator for 18 hours. The final DMSO concentration was 0.1%. The total volume was 200 μL. The final LPS concentration was 100 ng/mL. After 18 hours culture supernatants were removed and IL-1β, IL-6, and TNF-α presence in the supernatants was quantified using MSD ECL based technology.
20 μL of culture supernatant were added to MSD plates, and incubated for one hour at room temperature. 20 μL of detection antibody diluted in antibody diluent (1 μg/mL), and 110 μL of 2× Read Buffer P was added, and incubated for one hour at RT. Electrochemiluminescence was measured using the SECTOR HTS Imager (MSD, Gaithersburg, Md.).
Compound IC50 values were calculated as follows: The proportion of cytokine production in the presence of compound compared to the cytokine production in the presence of the DMSO vehicle alone (Hi control) was calculated using the formula: Percent Control (POC)=(compound−average Lo)/(average Hi−average Lo)*100.

[4] = THP-1, THP1 cells, LPS, 3 hours

Sequence of recombinant human p38α (Q16539 whole entry): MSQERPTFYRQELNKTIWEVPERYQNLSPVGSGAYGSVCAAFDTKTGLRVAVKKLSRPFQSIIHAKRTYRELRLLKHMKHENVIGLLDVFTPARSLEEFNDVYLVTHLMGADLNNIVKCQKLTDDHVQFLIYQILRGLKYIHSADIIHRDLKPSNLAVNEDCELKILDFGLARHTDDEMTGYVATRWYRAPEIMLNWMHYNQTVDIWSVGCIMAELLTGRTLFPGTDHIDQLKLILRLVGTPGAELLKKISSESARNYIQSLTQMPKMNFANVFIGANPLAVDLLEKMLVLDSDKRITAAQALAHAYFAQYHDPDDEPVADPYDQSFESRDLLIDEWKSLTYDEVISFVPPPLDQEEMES

CNC(=O)c1ccc(C)c(-c2cc3cnnc(-c4ccc(F)cc4F)c3n(C)c2=O)c1 [Example 31, 3-(8-(2,4-difluorophenyl)-1-methyl-2-oxo-1,2-dihydropyrido[2,3-d]pyridazin-3-yl)-N,4-dimethylbenzamide]
IC50 (recombinant human p38α): 2.7 nM
IC50 [1]: 30 nM

Cc1ccc(C(=O)NC2CC2)cc1-c1cc2cnnc(-c3ccc(S(C)(=O)=O)cc3C)c2n(C)c1=O [Example 26, N-cyclopropyl-4-methyl-3-(1-methyl-8-(2-methyl-4-(methylsulfonyl)phenyl)-2-oxo-1,2-dihydropyrido[2,3-d]pyridazin-3-yl)benzamide]
IC50 (recombinant human p38α): 3.3 nM
IC50 [1]: 10 nM

CCn1c(=O)c(-c2cc(C(=O)NC3CC3)ccc2C)cc2cnnc(-c3ccccc3Cl)c21 [Example 28, 3-(8-(2-chlorophenyl)-1-ethyl-2-oxo-1,2-dihydropyrido[2,3-d]pyridazin-3-yl)-N-cyclopropyl-4-methylbenzamide]
IC50 (recombinant human p38α): 1 nM
IC50 [1]: 1 nM

Cc1cnc(C(=O)NC2CC2)cc1-c1cc2cnnc(-c3ccc(F)cc3F)c2n(C)c1=O [Example 30, N-cyclopropyl-4-(8-(2,4-difluorophenyl)-1-methyl-2-oxo-1,2-dihydropyrido[2,3-d]pyridazin-3-yl)-5-methyl-2-pyridinecarboxamide]
IC50 (recombinant human p38α): 14 nM
IC50 [1]: 38 nM

Cc1ccc(C(=O)Nc2nccs2)cc1-c1cc2cnnc(-c3ccc(F)cc3F)c2n(C)c1=O [Example 32, 3-(8-(2,4-difluorophenyl)-1-methyl-2-oxo-1,2-dihydropyrido[2,3-d]pyridazin-3-yl)-4-methyl-N-1,3-thiazol-2-ylbenzamide]
IC50 (recombinant human p38α): 1.2 nM
IC50 [1]: 7.3 nM

Cc1ccc(C(=O)Nc2ccon2)cc1-c1cc2cnnc(-c3ccc(F)cc3Cl)c2n(C)c1=O [Example 21, 3-(8-(2-chloro-4-fluorophenyl)-1-methyl-2-oxo-1,2-dihydropyrido[2,3-d]pyridazin-3-yl)-N-3-isoxazolyl-4-methylbenzamide]
IC50 [2, 4]: ≤ 1000 nM
IC50 (recombinant human p38α): 0.8 nM
IC50 ([3]; LPS 100 ng/mL, 18 hours): ≤ 1000 nM

Cc1ccc(C(=O)Nc2ccon2)cc1-c1cc2cnnc(-c3ccc(F)cc3F)c2n(C)c1=O [Example 33, 3-(8-(2,4-difluorophenyl)-1-methyl-2-oxo-1,2-dihydropyrido[2,3-d]pyridazin-3-yl)-N-3-isoxazolyl-4-methylbenzamide]
IC50 [1]: 1.7 nM

Cc1ccc(C(=O)NC2CC2)cc1-c1cc2cnnc(-c3ccc(C(F)(F)F)cc3F)c2n(C)c1=O [Example 9, N-cyclopropyl-3-(8-(2-fluoro-4-(trifluoromethyl)phenyl)-1-methyl-2-oxo-1,2-dihydropyrido[3,2-d]pyridazin-3-yl)-4-methylbenzamide]
IC50 [2, 4]: ≤ 1000 nM
IC50 (recombinant human p38α): 2 nM
IC50 ([3]; LPS 100 ng/mL, 18 hours): ≤ 1000 nM

Cc1ccc(C(=O)NC2CC2)cc1-c1cc2cnnc(-c3ccc(F)cc3C)c2n(C)c1=O [Example 12, N-cyclopropyl-3-(8-(4-fluoro-2-methylphenyl)-1-methyl-2-oxo-1,2-dihydropyrido[3,2-d]pyridazin-3-yl)-4-methylbenzamide]
IC50 [2, 4]: ≤ 1000 nM
IC50 (recombinant human p38α): 2.5 nM
IC50 ([3]; LPS 100 ng/mL, 18 hours): ≤ 1000 nM

Cn1c(=O)c(-c2cc(C(=O)NC3CC3)ccc2Cl)cc2cnnc(-c3ccc(F)cc3F)c21 [Example 5, 4-chloro-N-cyclopropyl-3-(8-(2,4-difluorophenyl)-1-methyl-2-oxo-1,2-dihydropyrido[3,2-d]pyridazin-3-yl)benzamide]
IC50 ([2]; THP-1, 3 h): ≤ 1000 nM
IC50 (recombinant human p38α): 1.6 nM
IC50 ([3]; 18 h): ≤ 1000 nM

Cc1c(F)cc(C(=O)NC2CC2)cc1-c1cc2cnnc(-c3cc(F)ccc3Cl)c2n(C)c1=O [Example 19, 3-(8-(2-chloro-5-fluorophenyl)-1-methyl-2-oxo-1,2-dihydropyrido[2,3-d]pyridazin-3-yl)-N-cyclopropyl-5-fluoro-4-methylbenzamide]
IC50 [2, 4]: ≤ 1000 nM
IC50 (recombinant human p38α): 1.6 nM
IC50 ([3]; LPS 100 ng/mL, 18 hours): ≤ 1000 nM

CCn1c(=O)c(-c2cc(C(=O)NC3CC3)cc(F)c2C)cc2cnnc(-c3ccc(F)cc3F)c21 [Example 22, N-cyclopropyl-3-(8-(2,4-difluorophenyl)-1-ethyl-2-oxo-1,2-dihydropyrido[2,3-d]pyridazin-3-yl)-5-fluoro-4-methylbenzamide]
IC50 [2, 4]: ≤ 1000 nM
IC50 (recombinant human p38α): 1.3 nM
IC50 ([3]; LPS 100 ng/mL, 18 hours): ≤ 1000 nM

Cc1c(F)cc(C(=O)NC2CC2)cc1-c1cc2cnnc(-c3ccc(F)cc3Cl)c2n(C)c1=O [Example 17, 3-(8-(2-chloro-4-fluorophenyl)-1-methyl-2-oxo-1,2-dihydropyrido[2,3-d]pyridazin-3-yl)-N-cyclopropyl-5-fluoro-4-methylbenzamide]
IC50 [2, 4]: ≤ 1000 nM
IC50 (recombinant human p38α): 1.8 nM
IC50 ([3]; LPS 100 ng/mL, 18 hours): ≤ 1000 nM
